Test results reported in the NIST ThermoML archive (doi:10.1021/je050509f).
Numbers after ± are expanded uncertainties.

Test: mn = molality of the nth substance listed, in mol/kg
Conditions: Liquid, Vibrating tube method

Which mass density (348.27 K, 19998 kPa, m1 = 0.1348) does the source give for `[Cl-].[Cl-].[Zn+2]` [zinc chloride] + CO here?
The mass density was 775.25 ± 0.49 kg/m3.

What about the mass density (348.27 K, 20001 kPa, m1 = 5.367) of the same molecule?
Its mass density is 1160.36 ± 0.46 kg/m3.

What about the mass density (348.27 K, 20003 kPa, m1 = 1.039) of the same molecule?
The mass density was 851.34 ± 0.45 kg/m3.

And the mass density (348.27 K, 24987 kPa, m1 = 1.977)?
The mass density was 930.28 ± 0.43 kg/m3.

What about the mass density (348.27 K, 24989 kPa, m1 = 0.8018) of the same molecule?
The mass density was 837.48 ± 0.48 kg/m3.

And the mass density (348.27 K, 24994 kPa, m1 = 0.1348)?
The mass density was 780.25 ± 0.51 kg/m3.

And the mass density (348.27 K, 24994 kPa, m1 = 1.039)?
The mass density was 856.19 ± 0.46 kg/m3.

And the mass density (348.27 K, 24996 kPa, m1 = 0.4768)?
The mass density was 810.44 ± 0.49 kg/m3.

And the mass density (348.27 K, 25001 kPa, m1 = 5.367)?
Its mass density is 1164.74 ± 0.48 kg/m3.

What about the mass density (348.27 K, 29985 kPa, m1 = 0.4768) of the same molecule?
Its mass density is 815.14 ± 0.51 kg/m3.

And the mass density (348.27 K, 29987 kPa, m1 = 0.8018)?
The mass density was 842.17 ± 0.49 kg/m3.

And the mass density (348.27 K, 29990 kPa, m1 = 1.977)?
Its mass density is 934.86 ± 0.43 kg/m3.

What about the mass density (348.27 K, 29998 kPa, m1 = 0.1348) of the same molecule?
The mass density was 785.01 ± 0.53 kg/m3.

What about the mass density (348.27 K, 30011 kPa, m1 = 5.367) of the same molecule?
Its mass density is 1169.01 ± 0.5 kg/m3.

What about the mass density (348.27 K, 30014 kPa, m1 = 1.039) of the same molecule?
The mass density was 860.81 ± 0.47 kg/m3.

And the mass density (348.27 K, 34985 kPa, m1 = 1.977)?
Its mass density is 939.27 ± 0.44 kg/m3.

What about the mass density (348.27 K, 34987 kPa, m1 = 0.4768) of the same molecule?
The mass density was 819.64 ± 0.53 kg/m3.

And the mass density (348.27 K, 34988 kPa, m1 = 0.8018)?
Its mass density is 846.66 ± 0.5 kg/m3.

What about the mass density (348.27 K, 34990 kPa, m1 = 1.039) of the same molecule?
Its mass density is 865.23 ± 0.49 kg/m3.

What about the mass density (348.27 K, 34990 kPa, m1 = 5.367) of the same molecule?
The mass density was 1173.15 ± 0.52 kg/m3.

What about the mass density (348.27 K, 34998 kPa, m1 = 0.1348) of the same molecule?
Its mass density is 789.52 ± 0.56 kg/m3.

And the mass density (348.27 K, 39984 kPa, m1 = 5.367)?
Its mass density is 1177.19 ± 0.55 kg/m3.

And the mass density (348.27 K, 39991 kPa, m1 = 1.039)?
The mass density was 869.48 ± 0.5 kg/m3.

What about the mass density (348.27 K, 39993 kPa, m1 = 1.977) of the same molecule?
The mass density was 943.53 ± 0.43 kg/m3.

What about the mass density (348.27 K, 39998 kPa, m1 = 0.1348) of the same molecule?
Its mass density is 793.81 ± 0.58 kg/m3.

What about the mass density (348.27 K, 39999 kPa, m1 = 0.8018) of the same molecule?
The mass density was 850.97 ± 0.51 kg/m3.

And the mass density (348.27 K, 40007 kPa, m1 = 0.4768)?
Its mass density is 823.94 ± 0.54 kg/m3.

And the mass density (373.3 K, 523 kPa, m1 = 0.8018)?
The mass density was 783.25 ± 0.43 kg/m3.

What about the mass density (373.3 K, 527 kPa, m1 = 0.4768) of the same molecule?
The mass density was 755.9 ± 0.43 kg/m3.

And the mass density (373.3 K, 527 kPa, m1 = 1.977)?
Its mass density is 876.84 ± 0.42 kg/m3.

What about the mass density (373.3 K, 533 kPa, m1 = 0.1348) of the same molecule?
The mass density was 725.48 ± 0.44 kg/m3.

And the mass density (373.3 K, 535 kPa, m1 = 5.367)?
The mass density was 1112.11 ± 0.42 kg/m3.

What about the mass density (373.3 K, 536 kPa, m1 = 1.039) of the same molecule?
The mass density was 802.51 ± 0.43 kg/m3.

What about the mass density (373.3 K, 4986 kPa, m1 = 5.367) of the same molecule?
The mass density was 1117.02 ± 0.43 kg/m3.

What about the mass density (373.3 K, 4988 kPa, m1 = 1.039) of the same molecule?
Its mass density is 808.88 ± 0.43 kg/m3.

And the mass density (373.3 K, 4990 kPa, m1 = 0.4768)?
Its mass density is 762.64 ± 0.44 kg/m3.

And the mass density (373.3 K, 4994 kPa, m1 = 0.8018)?
Its mass density is 789.83 ± 0.44 kg/m3.

What about the mass density (373.3 K, 4995 kPa, m1 = 0.1348) of the same molecule?
Its mass density is 732.41 ± 0.45 kg/m3.

What about the mass density (373.3 K, 5003 kPa, m1 = 1.977) of the same molecule?
Its mass density is 882.85 ± 0.42 kg/m3.

What about the mass density (373.3 K, 9984 kPa, m1 = 0.4768) of the same molecule?
Its mass density is 769.58 ± 0.46 kg/m3.

What about the mass density (373.3 K, 9984 kPa, m1 = 0.8018) of the same molecule?
Its mass density is 796.61 ± 0.45 kg/m3.

What about the mass density (373.3 K, 9985 kPa, m1 = 0.1348) of the same molecule?
Its mass density is 739.51 ± 0.47 kg/m3.

What about the mass density (373.3 K, 9986 kPa, m1 = 1.977) of the same molecule?
Its mass density is 889.12 ± 0.43 kg/m3.

And the mass density (373.3 K, 9995 kPa, m1 = 1.039)?
Its mass density is 815.55 ± 0.44 kg/m3.

And the mass density (373.3 K, 10002 kPa, m1 = 5.367)?
Its mass density is 1122.33 ± 0.43 kg/m3.

And the mass density (373.3 K, 14985 kPa, m1 = 0.4768)?
Its mass density is 776 ± 0.47 kg/m3.

What about the mass density (373.3 K, 14990 kPa, m1 = 5.367) of the same molecule?
Its mass density is 1127.43 ± 0.44 kg/m3.

What about the mass density (373.3 K, 15001 kPa, m1 = 0.1348) of the same molecule?
The mass density was 746.08 ± 0.49 kg/m3.

What about the mass density (373.3 K, 15005 kPa, m1 = 0.8018) of the same molecule?
The mass density was 802.94 ± 0.46 kg/m3.

And the mass density (373.3 K, 15009 kPa, m1 = 1.039)?
Its mass density is 821.76 ± 0.45 kg/m3.

What about the mass density (373.3 K, 15009 kPa, m1 = 1.977) of the same molecule?
The mass density was 895.06 ± 0.43 kg/m3.

And the mass density (373.3 K, 19986 kPa, m1 = 0.1348)?
Its mass density is 752.14 ± 0.51 kg/m3.

And the mass density (373.3 K, 19987 kPa, m1 = 0.4768)?
Its mass density is 781.98 ± 0.49 kg/m3.

What about the mass density (373.3 K, 20001 kPa, m1 = 1.039) of the same molecule?
Its mass density is 827.53 ± 0.47 kg/m3.

And the mass density (373.3 K, 20005 kPa, m1 = 0.8018)?
Its mass density is 808.85 ± 0.48 kg/m3.

What about the mass density (373.3 K, 20008 kPa, m1 = 5.367) of the same molecule?
The mass density was 1132.37 ± 0.45 kg/m3.

What about the mass density (373.3 K, 20012 kPa, m1 = 1.977) of the same molecule?
The mass density was 900.64 ± 0.44 kg/m3.

What about the mass density (373.3 K, 24985 kPa, m1 = 0.4768) of the same molecule?
The mass density was 787.59 ± 0.51 kg/m3.

And the mass density (373.3 K, 24989 kPa, m1 = 1.039)?
Its mass density is 832.97 ± 0.48 kg/m3.

What about the mass density (373.3 K, 24990 kPa, m1 = 0.8018) of the same molecule?
The mass density was 814.38 ± 0.49 kg/m3.

What about the mass density (373.3 K, 24992 kPa, m1 = 0.1348) of the same molecule?
Its mass density is 757.83 ± 0.52 kg/m3.

And the mass density (373.3 K, 25001 kPa, m1 = 1.977)?
Its mass density is 905.94 ± 0.44 kg/m3.

And the mass density (373.3 K, 25001 kPa, m1 = 5.367)?
The mass density was 1137.12 ± 0.47 kg/m3.

And the mass density (373.3 K, 29985 kPa, m1 = 0.1348)?
Its mass density is 763.18 ± 0.56 kg/m3.

And the mass density (373.3 K, 29988 kPa, m1 = 1.977)?
Its mass density is 910.98 ± 0.45 kg/m3.

And the mass density (373.3 K, 29993 kPa, m1 = 1.039)?
Its mass density is 838.14 ± 0.49 kg/m3.

And the mass density (373.3 K, 29994 kPa, m1 = 5.367)?
Its mass density is 1141.72 ± 0.48 kg/m3.
